Series [1] concerns peripheral blood mononuclear cells (PBMCs) from healthy donors. Briefly: IFN production by R848-activated PBMCs, quantified with twINNE luciferase reporter cell line. The class given is cell-based, human. The settings on record: Homo sapiens, PBMC; read-out: IC50 of anti-inflammatory activity (IFN production by activated PBMCs). In short, it runs like this:
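Healthy-donor PBMCs (4.10^6/mL, RPMI/10% FBS) were pre-treated with compound, then stimulated with R848 at 5 μg/mL for 24 h. Supernatants were put on twINNE cells, which carry luciferase under five ISREs, for 24 h, and Bright-Glo luminescence was read. IC50 values came from variable-slope dose-response fits.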
On the technique in general: Reporter assays use an easily measured gene product as a stand-in for the process of interest.

For series [2], the target named is T1, Recombinant CXCR4 receptor (Homo sapiens, UniProt P61073).
T1 construct: host or cells: HEK-293 T cells
Nature of the series: G.Validation fluorescence assay of CXCR4 receptor conformational changes in lipidic micelles SB2L4 and SB3L1. In kind it is biochemical. The note with it: ligand 150 μM over basal state, 5 μM labelled CXCR4, 40 min. An excerpt:
G.Validation® assay is […] biotech proprietary fluorescence based assay that assesses conformational changes of a receptor upon activation/inactivation. Recombinant CXCR4 receptor is produced and purified from HEK-293 T cells using […] proprietary mixes. Receptor is then reconstituted in detergent buffers containing lipids mimicking the lipidic composition of dendritic cells (DC) and macrophages (SB2L4 and SB3L1). Thereafter, the receptor is labelled with a non-modifying probe allowing the detection of the activation state and conformational change of the receptor upon addition of a ligand. Indeed, the probe emission spectra maximum wavelength (Amax) shifts according to activation/inactivation of the receptor. Thus, kinetic of activation/inactivation of the receptor can be followed by monitoring Amax shift after addition of a ligand over time. Emission spectra were registered for 40 minutes after addition of each ligand. […] Activation/inactivation kinetics were also followed using an exemplary compound of formula (I), i.e.

In series [3] the test system is 129S8 mice infected with influenza A virus H3 N2 (X31). Briefly: In vivo immunomodulating effect (type 1 IFNs in BALF) in acute influenza inflammation model. The note with it: mouse, in vivo. Set-up: species or system mouse.
The test system of series [4] is Female Balb/c mice, pristane-induced lupus. Nature of the series: In vivo pristane-induced lupus mouse model, anti-dsDNA antibody titers in serum by ELISA. The settings on record: 15 mg/kg p.o. once daily, as of week 4. The protocol:
Female Balb/c mice (6 to 8 weeks, ENVIGO, Indianapolis, USA) received a single i.p. injection with 0.5 mL of pristane (Sigma-Aldrich, St Louis, USA) to induce a lupus-like disease. That same day, once daily treatment was started (10 mL/kg), either with vehicle control (PBS) i.p., with prednisolone (Sigma-Aldrich, St Louis, USA) in PBS p.o. at a dose of 15 mg/kg (positive control), or with an exemplary compound of formula (I), i.e. Example 60, at a dose of either 3 mg/kg, 10 mg/kg or 30 mg/kg in PBS i.p. After 4, 6 and 8 weeks of dosing, sample bleeds for each mouse were collected via the orbital sinus, and immediately cold processed to sera and stored (50 μl) at −80° C. until analysis. In serum, anti-dsDNA antibody titers are determined using ELISA. Optical density was measured at 450 nm (OD450) using a microplate reader. Data are reported as anti-dsDNA Ab titers (OD), mean±S.E.M. as well as the statistical significance versus pristane-induced vehicle treated group using t-tests.
In general terms: In an ELISA, binding on a coated surface is turned into a signal by an enzyme label.

Where a name gives a salt, the structure may show the parent alone.

By melting point is commonly meant the temperature of the solid-liquid transition. The term IC50 denotes the midpoint of a concentration-inhibition curve.

T1 sequence (P61073 whole entry): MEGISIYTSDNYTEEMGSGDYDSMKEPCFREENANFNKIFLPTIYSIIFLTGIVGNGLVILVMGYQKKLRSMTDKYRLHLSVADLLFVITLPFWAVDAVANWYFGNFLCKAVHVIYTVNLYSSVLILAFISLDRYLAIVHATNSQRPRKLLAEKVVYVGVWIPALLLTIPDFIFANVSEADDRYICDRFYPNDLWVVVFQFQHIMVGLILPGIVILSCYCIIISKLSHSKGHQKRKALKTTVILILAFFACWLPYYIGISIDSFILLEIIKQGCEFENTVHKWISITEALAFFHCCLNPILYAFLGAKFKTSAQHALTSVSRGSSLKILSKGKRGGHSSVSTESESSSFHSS

In turn, `Cc1ccc(CC2CN3C(CSC4=NCc5ccccc5N4)=CSC3=N2)cc1` (stereo not shown) (as salt: hydrochloride) [Example 122, 3-(((1,4-dihydroquinazolin-2-yl)thio)methyl)-6-(4-methylbenzyl)-5,6-dihydroimidazo[2,1-b]thiazole dihydrochloride] returned a melting point of 158 to 170 °C. Molecule `COc1ccc(C[C@@H]2CN3C(CSC4=NCc5ccccc5N4)=CSC3=N2)cc1` (as salt: hydrochloride) [Example 124, (R)-3-(((1,4-dihydroquinazolin-2-yl)thio)methyl)-6-(4-methoxybenzyl)-5,6-dihydroimidazo[2,1-b]thiazole dihydrochloride] displayed a melting point of 150 to 164 °C. The molecule `C1=C(CSC2=NCc3ccccc3N2)N2CC(CCc3ccccc3)N=C2S1` (stereo not shown) (as salt: hydrochloride) [Example 126, 3-(((1,4-dihydroquinazolin-2-yl)thio)methyl)-6-phenethyl-5,6-dihydroimidazo[2,1-b]thiazole dihydrochloride] gave a melting point of 136 to 142 °C. Consider `c1ccc(C2CCCN2CCSC2=NCc3ccccc3N2)cc1` (stereo not shown) (as salt: hydrochloride) [Example 128, 2-((2-(2-phenylpyrrolidin-1-yl)ethyl)thio)-1,4-dihydroquinazoline dihydrochloride], for which the melting point is 94 to 108 °C. Consider `c1ccc2c(c1)CN=C(SCCN1[C@@H]3CCC[C@H]1CC3)N2` (as salt: hydrochloride) [Example 133, 2-((2-((1R,5S)-8-azabicyclo[3.2.1]octan-8-yl)ethyl)thio)-3,4-dihydroquinazoline dihydrochloride], for which the melting point was 52 to 70 °C. `Ic1cc2c(c(I)c1I)NC(SCCN1CCCC1)=NC2` (as salt: hydrochloride) [Example 134, 6,7,8-triiodo-2-((2-(pyrrolidin-1-yl)ethyl)thio)-1,4-dihydroquinazoline dihydrochloride] registered a melting point of 190 to 195 °C.

Molecule `c1ccc2c(c1)CN=C(SCCCCN1CCCC1)N2` (as salt: hydrochloride) [Example 137, 2-((4-(pyrrolidin-1-yl)butyl)thio)-1,4-dihydroquinazoline dihydrochloride] displayed a melting point of 78 to 85 °C. In the case of `CC1CCN(CCSC2=NCc3ccccc3N2)C1` (stereo not shown) (as salt: hydrochloride) [Example 138, 2-((2-(3-methylpyrrolidin-1-yl)ethyl)thio)-1,4-dihydroquinazoline dihydrochloride], the melting point was 178 to 182 °C. Consider `Fc1ccc(CC2CN3C(CSC4=NCc5ccccc5N4)=CSC3=N2)cc1` (stereo not shown) (as salt: hydrochloride) [Example 196, 3-(((1,4-dihydroquinazolin-2-yl)thio)methyl)-6-(4-fluorobenzyl)-5,6-dihydroimidazo[2,1-b]thiazole dihydrochloride], for which the melting point was in the range of 155 to 160 °C. Still for that read-out and setting: with `C1=C(CSC2=NCc3ccccc3N2)N2C(=N[C@H]3CCCC[C@@H]32)S1` (relative stereo) (as salt: hydrochloride) [Example 13, trans-3-(((3,4-dihydroquinazolin-2-yl)thio)methyl)-4a,5,6,7,8,8a-hexahydrobenzo[4,5]imidazo[2,1-b]thiazole dihydrochloride] the figure was 240 to 244 °C; with `C1=C(CSC2=NCc3ccccc3N2)N2C(=N[C@H](c3ccccc3)[C@H]2c2ccccc2)S1` (relative stereo) (as salt: hydrochloride) [Example 16, trans-3-(((3,4-dihydroquinazolin-2-yl)thio)methyl)-5,6-diphenyl-5,6-dihydroimidazo[2,1-b]thiazole dihydrochloride], 175 to 185 °C. Consider `OC1(CSC2=NCc3ccccc3N2)CSC2=N[C@H](c3ccccc3)[C@@H](c3ccccc3)N21` (relative stereo) (as salt: hydrochloride) [Example 17, trans-3-(((3,4-dihydroquinazolin-2-yl)thio)methyl)-5,6-diphenyl-2,3,5,6-tetrahydroimidazo[2,1-b]thiazol-3-ol dihydrochloride], for which the melting point was in the range of 195 to 200 °C. As to `C1=C(CSC2=NCc3cccnc3N2)N2Cc3ccccc3CN=C2S1.Cl.Cl.Cl` [Example 31, 3-(((1,4-dihydropyrido[2,3-d]pyrimidin-2-yl)thio)methyl)-5,10-dihydrobenzo[e]thiazolo[3,2-a][1,3]diazepine trihydrochloride], the melting point was in the range of 194 to 203 °C. For the same molecule, in series [1], the IC50 is at most 10 µM. The corresponding values for `Cl.c1ccc(CC2CN=C(SCc3cn4cccnc4n3)N2)cc1` (stereo not shown) [Example 51, 2-(((5-benzyl-4,5-dihydro-1H-imidazol-2-yl)thio)methyl)imidazo[1,2-a]pyrimidine hydrochloride] are 100 to 115 °C and above 32 µM. Take `Cl.c1ccc2c(c1)CN=C(SCc1csc3nc4ccccc4n13)N2` [Example 96]: the melting point is above 250 °C. `COc1cc2nc3scc(CSC4=NCc5ccccc5N4)n3c2cc1OC.Cl` [Example 97, 3-(((3,4-dihydroquinazolin-2-yl)thio)methyl)-6,7-dimethoxybenzo[4,5]imidazo[2,1-b]thiazole hydrochloride]: the melting point was in the range of 238 to 240 °C. Moreover, the IC50 in series [1] was above 32 µM.

Regarding `Cl.c1ccc2c(c1)CN=C(SCCN1CCc3ccccc31)N2` [Example 115, 2-((2-(indolin-1-yl)ethyl)thio)-1,4-dihydroquinazoline hydrochloride], the melting point is 82 to 88 °C. Also, in series [1], the IC50 was 10 to 32 µM. Regarding `Cl.c1ccc2c(c1)CN=C(SCCCN1CCCC1)N2` [Example 136, 2-((3-(pyrrolidin-1-yl)propyl)thio)-1,4-dihydroquinazoline dihydrochloride], the melting point was in the range of 178 to 182 °C. Besides, the half-maximal inhibitory concentration (IC50) in series [1] is at most 10 µM. The molecule `Cl.c1ccc2c(c1)CN=C(SCCC1CCCC1)N2` [Example 197, 2-((2-cyclopentylethyl)thio)-1,4-dihydroquinazoline hydrochloride] came in with a melting point of 42 to 50 °C. Besides, the IC50 in series [1] fell in the range of 10 to 32 µM. On to `Cc1ccc(OCC(O)C(C)NC(C)C)c2c1CCC2` (stereo not shown) [ICI 118 551], for which, in series [2], the “CXCR4 structural activation/inactivation, Amax shift in fluorescence” value is “did not show any significant effect”. As to `NC[C@H](O)c1ccc(O)c(O)c1` [Norepinephrine], in series [2], the “CXCR4 structural activation/inactivation, Amax shift in fluorescence” value is “did not show any significant effect”.

On to `CC(C)Cc1ccc(C(C)C(=O)O)cc1` (stereo not shown) [ibuprofen, reference compound], for which, in series [3], the “concentration of IFNα in BALF vs vehicle-treated infected mice” value is “significantly lower”, the “concentration of IFNβ in BALF vs vehicle-treated infected mice” value was “significantly lower” and the “concentration of IFNλ2/3 in BALF vs vehicle-treated infected mice” value is reported as “significantly lower”. In the case of `C[C@]12C=CC(=O)C=C1CC[C@@H]1[C@@H]2[C@@H](O)C[C@@]2(C)[C@H]1CC[C@]2(O)C(=O)CO` [prednisolone, reference compound], the “anti-dsDNA Ab titers in serum vs vehicle-treated pristane-induced mice” value in series [4] is given as “significantly reduced”.

(Values after US20240018125A1, “CYCLIC ISOTHIOUREA DERIVATIVES AS CXCR4 MODULATORS” (ERMIUM THERAPEUTICS, priority 2020, published 2024).)
